Assay results reported in publication PMC6977461 (Chemical Science, 2019).

Assays:
mouse GLP-1 receptor [1] = biological target: T1, mouse GLP-1 receptor (Mus musculus, UniProt O35659); test: radioligand binding assay, [125I]GLP-1(7-36), βTC6 cell membrane homogenates
T1 construct: βTC6 cells which express GLP-1R endogenously; host or cells: βTC6 cells
T1 sequence (O35659 22-463): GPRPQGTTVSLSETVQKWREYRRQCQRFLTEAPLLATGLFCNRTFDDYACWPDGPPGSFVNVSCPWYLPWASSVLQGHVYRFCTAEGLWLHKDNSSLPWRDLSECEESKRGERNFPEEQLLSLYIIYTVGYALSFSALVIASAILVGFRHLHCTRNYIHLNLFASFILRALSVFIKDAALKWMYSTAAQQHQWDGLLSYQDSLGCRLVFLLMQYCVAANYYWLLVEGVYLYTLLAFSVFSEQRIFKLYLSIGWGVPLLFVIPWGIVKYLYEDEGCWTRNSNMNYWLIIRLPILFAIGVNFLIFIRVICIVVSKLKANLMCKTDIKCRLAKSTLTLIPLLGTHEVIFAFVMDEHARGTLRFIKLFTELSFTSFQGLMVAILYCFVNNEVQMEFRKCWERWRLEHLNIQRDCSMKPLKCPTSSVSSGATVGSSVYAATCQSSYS
Protocol: In vitro pharmacology: Affinity (IC50)
and 1% BSA. […] Following
incubation, the samples are filtered rapidly under vacuum through glass fiber filters (GF/B, Packard)
presoaked with 0.3% PEI and rinsed several times with an ice-cold buffer containing 50 mM Tris-HCl
and 500 mM NaCl using a 96-sample cell harvester (Unifilter, Packard). The filters are dried then
counted for radioactivity in a scintillation counter (Topcount, Packard) using a scintillation cocktail
(Microscint 0, Packard). The results are expressed as a percent inhibition of the control radioligand
at several concentrations to obtain a competition curve from which its IC50 is calculated using

[2] = mouse plasma degradation assay (Methods MP1-MP3); assay type: in vitro ADME; conditions: mouse plasma diluted 1/1 with PBS; mouse plasma/PBS pH 7.4 (1/1), 5 µM, 37 °C, acetonitrile quench, LC-MS extracted ion chromatogram; MP1 for 2-8, MP2 for 9-11, MP3 for 12-14; mean, n = 3; read-out: Mouse plasma t1/2 (converted)
Protocol: The oligomer was then diluted 1/50 with a solution of plasma/PBS pH 7.4 (1/1) to afford a final concentration of 5μM and incubated at 37°C. […] (t = 0 min was determined using the reaction without plasma). The samples were frozen at -80°C before analysis. […] The supernatant was analyzed by LC-MS. The time course of oligomer degradation was determined by integrating the area of the peak in the extracted ion chromatogram. […] The oligomer was then diluted 1/50 with a solution of plasma/PBS pH 7.4 (1/1) to afford a final concentration of 5μM and incubated at 37°C. […] The oligomer was then diluted 1/50 with a solution of plasma/PBS pH 7.4 (1/1) to afford a final concentration of 5μM and incubated at 37°C. […] Animals. […] A standard chow diet (RM1 (E) 801492, SDS) and tap water were provided ad libitum. All animal protocols done by Physiogenex S.A.S were reviewed and approved by the local (Comité […] national ([…]

mouse GLP-1 receptor [3] = biological target: T1, mouse GLP-1 receptor; test: cAMP production in βTC6 cells expressing GLP-1R endogenously (Method C2); assay type: cell-based
Protocol: (§1)  HEK-293T cells (Multispan inc., lot#.DC1267-062017) were suspended in cell culture media
(§2) (DMEM 1X + GlutaMAX (Gibco 31966-021)) complemented with FBS 10% (Sigma Aldrich
(§3)  βTC6 cells were suspended in HBSS buffer (Invitrogen) complemented with 20 mM HEPES (pH
(§4) In vitro pharmacology on HEK-293T cells (EC50: Method C1)
(§5) cells (Multispan inc., lot#.DC1267-062017) was determined by measuring their effects on cAMP
(§6) production using the HTRF detection method (performed by UREkA SARL). The cells were distributed
(§7) in 384-well microplates at a density of 1.0x10^4 cells/well. Stock solutions of the test compounds or the
(§8) reference agonist were prepared at a concentration of 1 mM in DMSO. Then, compounds to be tested
(§9) were diluted in cell culture media and transferred to the plate containing the cells to reach final assay

GLP-1R = GLP-1R (Homo sapiens, UniProt P43220); test: cAMP production functional assay in HEK293 cells transfected with GLP-1R (Method C1); assay type: cell-based; design: host or cells: HEK-293T
GLP-1R, sequence (P43220 24-463): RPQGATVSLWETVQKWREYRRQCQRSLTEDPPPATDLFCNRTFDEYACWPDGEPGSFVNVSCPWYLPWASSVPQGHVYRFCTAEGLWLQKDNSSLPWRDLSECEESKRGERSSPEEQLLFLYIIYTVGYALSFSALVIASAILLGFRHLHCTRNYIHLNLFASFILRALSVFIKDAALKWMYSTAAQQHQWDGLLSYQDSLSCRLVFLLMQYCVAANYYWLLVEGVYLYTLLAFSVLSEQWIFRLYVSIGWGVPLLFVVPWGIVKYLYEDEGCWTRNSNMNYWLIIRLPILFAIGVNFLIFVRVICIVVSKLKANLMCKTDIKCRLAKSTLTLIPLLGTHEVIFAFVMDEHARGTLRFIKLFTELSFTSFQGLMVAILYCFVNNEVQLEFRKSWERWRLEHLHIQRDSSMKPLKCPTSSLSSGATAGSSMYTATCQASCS
Protocol: as §1, §2, §3, §4, §5, §6, §7, §8, §9

IC50 (mouse GLP-1 receptor [1]): 32 nM
half-life at 5 µM [2]: 14.4 min
Potency (%), Table S1 (mouse GLP-1 receptor [3]; from EC50 in βTC6 cAMP assay, footnote: compare to GLP-1-NH2 (2)): 70%
EC50 (mouse GLP-1 receptor [3]; read-out: EC50 (GLP-1R potency), Table S1): 0.14 nM
EC50 (GLP-1R; HEK-293T cells exogenously expressing human GLP-1R, cAMP by HTRF, 10 min at 37 °C, Method C1, mean, n = 3 (2: n = 6), read-out: EC50 (GLP-1R potency)): 0.0027 nM
Potency (%), percentage of potency compared to GLP-1-NH2 (GLP-1R; from EC50 in HEK293 GLP-1R cAMP assay): 117%
SMILES: CC[C@H](C)[C@H](NC(=O)[C@H](Cc1ccccc1)NC(=O)[C@H](CCC(=O)O)NC(=O)[C@H](CCCCN)NC(=O)[C@H](C)NC(=O)[C@H](C)NC(=O)[C@H](CCC(N)=O)NC(=O)CNC(=O)[C@H](CCC(=O)O)NC(=O)[C@H](CC(C)C)NC(=O)[C@H](Cc1ccc(O)cc1)NC(=O)[C@H](CO)NC(=O)[C@H](CO)NC(=O)[C@@H](NC(=O)[C@H](CC(=O)O)NC(=O)[C@H](CO)NC(=O)[C@@H](NC(=O)[C@H](Cc1ccccc1)NC(=O)[C@@H](NC(=O)CNC(=O)[C@H](CCC(=O)O)NC(=O)NC[C@H](C)NC(=O)[C@@H](N)Cc1c[nH]cn1)[C@@H](C)O)[C@@H](C)O)C(C)C)C(=O)N[C@@H](C)C(=O)N[C@@H](Cc1c[nH]c2ccccc12)C(=O)N[C@@H](CC(C)C)C(=O)N[C@H](C(=O)N[C@@H](CCCCN)C(=O)NCC(=O)N[C@@H](CCCNC(=N)N)C(=O)NCC(N)=O)C(C)C [compound 3]
